Results taken from patent publication US10035805B2, “Tricyclic triazolic compounds” (LABORATORIOS DEL DR. ESTEVE S.A., priority 2014, dated 2018).
Structures can show the parent of a compound that is named as a salt.

target: T1, sigma-1 receptor (Cavia porcellus, UniProt Q60492); assay: Sigma-1 receptor radioligand binding assay with [3H]-(+)-pentazocine in guinea pig brain membranes; details: radioligand [3H]-(+)-pentazocine at 5.0 nM, 150 min at 37° C., nonspecific binding with 1 μM haloperidol
T1 construct: Guinea pig brains were homogenized in 10 vols; (w/v) of Tris-HCl 50 mM 0.32 M sucrose; from tissue; host or cells: guinea pig brain membranes
Protocol: Brain membrane preparation and binding assays for the al-receptor were performed as described (DeHaven-Hudkins, D. L., L. C. Fleissner, and F. Y. Ford-Rice, 1992, Characterization of the binding of [^3H](+)pentazocine to a recognition sites in guinea pig brain, Eur. J. Pharmacol. 227, 371-378) with some modifications. Guinea pig brains were homogenized in 10 vols. (w/v) of Tris-HCl 50 mM 0.32 M sucrose, pH 7.4, with a Kinematica Polytron PT 3000 at 15000 r.p.m. for 30 s. The homogenate was centrifuged at 1000 g for 10 min at 4° C. and the supernatants collected and centrifuged again at 48000 g for 15 min at 4° C. The pellet was resuspended in 10 volumes of Tris-HCl buffer (50 mM, pH 7.4), incubated at 37° C. for 30 min, and centrifuged at 48000 g for 20 min at 4° C. Following this, the pellet was resuspended in fresh Tris-HCl buffer (50 mM, pH 7.4) and stored on ice until use.
The radioligand used was [^3H]-(+)-pentazocine at 5.0 nM and the final volume was 200 μl. The incubation was initiated with the addition of 100 μl of membrane at a final tissue concentration of approximately 5 mg tissue net weight/mL and the incubation time was 150 m. at 37° C. After incubation, the membranes were collected onto pretreated glass fiber filterplate (MultiScreen-FC, Millipore), with polyethylenimine 0.1%. The filters were washed two times with 200 μl of washing buffer (50 mM Tris Cl, pH=7.4) and then 25 μl of Ecoscint H liquid scintillation cocktail were added. Microplates were allowed to set for several hours and then quantified by liquid scintillation spectrophotometry (1450 Microbeta, Wallac). Nonspecific binding was determined with 1 μM haloperidol.

T1 sequence (Q60492 whole entry): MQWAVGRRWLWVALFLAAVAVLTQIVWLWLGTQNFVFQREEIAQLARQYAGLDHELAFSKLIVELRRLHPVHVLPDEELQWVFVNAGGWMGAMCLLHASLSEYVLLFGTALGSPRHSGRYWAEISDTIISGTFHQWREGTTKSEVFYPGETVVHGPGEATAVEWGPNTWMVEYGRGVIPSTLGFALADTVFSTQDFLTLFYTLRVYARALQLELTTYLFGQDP

Ki [nM]	SMILES
< 100	CCCCCN1C[C@@H]2NCc3c(-c4ccccc4)nnn3[C@@H]2C1 (racemic) [Example 14, (rac) (5a,8a-cis)-7-pentyl-3-phenyl-5,5a,6,7,8,8a-hexahydro-4H-pyrrolo[3,4-e][1,2,3]triazolo[1,5-a]pyrazine]
> 500	O=C1N[C@H]2CNC[C@H]2n2nnc(-c3ccccc3)c21 (racemic) [Example 36, (rac)-(5a,8a-cis)-3-phenyl-5,5a,6,7,8,8a-hexahydro-4H-pyrrolo[3,4-e][1,2,3]triazolo[1,5-a]pyrazin-4-one hydrochloride]
> 500	CN1C(=O)c2c(-c3ccccc3)nnn2[C@@H]2CN(Cc3ccccc3)C[C@@H]21 (racemic) [Example 37, (rac)-(5a,8a-cis)-7-benzyl-5-methyl-3-phenyl-5,5a,6,7,8,8a-hexahydro-4H-pyrrolo[3,4-e][1,2,3]triazolo[1,5-a]pyrazin-4-one]
< 100	Clc1ccc(CN2C[C@@H]3[C@@H](C2)NCc2c(-c4ccccc4)nnn23)cc1 [Example 25, (5aR,8aR)-7-(4-chlorobenzyl)-3-phenyl-5,5a,6,7,8,8a-hexahydro-4H-pyrrolo[3,4-e][1,2,3]triazolo[1,5-a]pyrazine hydrochloride]
< 100	c1ccc(CN2C[C@@H]3NCCc4c(-c5ccccc5)nnn4[C@@H]3C2)cc1 [Example 35, (6aS,9aR)-8-benzyl-3-phenyl-4,5,6,6a,7,8,9,9a-octahydropyrrolo[3,4-b][1,2,3]triazolo [1,5-d][1,4]-diazepine hydrochloride]
> 500	O=C1N[C@H]2CN(Cc3ccccc3)C[C@H]2n2nnc(-c3ccccc3)c21 (racemic) [Example 2, (rac)-(5a,8a-cis)-7-benzyl-3-phenyl-5,5a,6,7,8,8a-hexahydro-4H-pyrrolo[3,4-e][1,2,3]triazolo[1,5-a]pyrazin-4-one]
< 100	CCCCCN1C[C@@H]2[C@@H](C1)n1nnc(-c3ccccc3)c1CN2CCC (racemic) [Example 11, (rac) (5a,8a-trans)-7-pentyl-3-phenyl-5-propyl-5,5a,6,7,8,8a-hexahydro-4H-pyrrolo[3,4-e][1,2,3]triazolo[1,5-a]pyrazine hydrochloride]
> 500	CCCN1Cc2c(-c3ccccc3)nnn2[C@@H]2CNC[C@H]21 (racemic) [Example 10, (rac) (5a,8a-trans)-3-phenyl-5-propyl-5,5a,6,7,8,8a-hexahydro-4H-pyrrolo[3,4-e][1,2,3]triazolo[1,5-a]pyrazine hydrochloride]
< 100	Fc1ccccc1-c1nnn2c1CN[C@@H]1CN(Cc3ccccc3)C[C@H]12 (racemic) [Example 28, (rac) (5a,8a-trans)-7-benzyl-3-(2-fluorophenyl)-5,5a,6,7,8,8a-hexahydro-4H-pyrrolo[3,4-e][1,2,3]triazolo[1,5-a]pyrazine hydrochloride]
< 100	c1ccc(CN2C[C@@H]3NCc4c(-c5ccccc5)nnn4[C@@H]3C2)cc1 [Example 15, (5aS,8aR)-7-benzyl-3-phenyl-5,5a,6,7,8,8a-hexahydro-4H-pyrrolo[3,4-e][1,2,3]triazolo[1,5-a]pyrazine]
< 100	Fc1ccc(CN2C[C@@H]3[C@@H](C2)NCc2c(-c4ccccc4)nnn23)cc1 [Example 24, (5aR,8aR)-7-(4-fluorobenzyl)-3-phenyl-5,5a,6,7,8,8a-hexahydro-4H-pyrrolo[3,4-e][1,2,3]triazolo[1,5-a]pyrazine hydrochloride]
100 to 500	CCC(=O)N1CCc2c(-c3ccccc3)nnn2[C@@H]2CN(Cc3ccccc3)C[C@@H]21 (racemic) [Example 33, (rac) 1-((6a,9a-cis)-8-benzyl-3-phenyl-4,5,7,8,9,9a-hexahydropyrrolo[3,4-b][1,2,3]triazolo[1,5-d][1,4]diazepin-6(6aH)-yl)propan-1-one hydrochloride]
100 to 500	FC(F)(F)c1ccc(CN2C[C@@H]3[C@@H](C2)NCc2c(-c4ccccc4)nnn23)cc1 [Example 26, (5aR,8aR)-3-phenyl-7-(4-(trifluoromethyl)benzyl)-5,5a,6,7,8,8a-hexahydro-4H-pyrrolo[3,4-e][1,2,3]triazolo[1,5-a]pyrazine hydrochloride]
< 100	c1ccc(CN2C[C@@H]3[C@H](C2)N(CC2CC2)CCc2c(-c4ccccc4)nnn23)cc1 (racemic) [Example 32, (rac) (6a,9a-cis)-8-benzyl-6-(cyclopropylmethyl)-3-phenyl-4,5,6,6a,7,8,9,9a-octahydropyrrolo[3,4-b][1,2,3]triazolo[1,5-d][1,4]diazepine hydrochloride]
> 500	Fc1ccc(CN2C[C@@H]3NCc4c(-c5ccccc5)nnn4[C@H]3C2)cc1 [Example 23, (5aS,8aS)-7-(4-fluorobenzyl)-3-phenyl-5,5a,6,7,8,8a-hexahydro-4H-pyrrolo[3,4-e][1,2,3]triazolo[1,5-a]pyrazine hydrochloride]
100 to 500	CCCN1Cc2c(-c3ccccc3)nnn2[C@@H]2CN(Cc3ccccc3)C[C@@H]21 (racemic) [Example 13, (rac) (5a,8a-cis)-7-benzyl-3-phenyl-5-propyl-5,5a,6,7,8,8a-hexahydro-4H-pyrrolo[3,4-e][1,2,3]triazolo[1,5-a]pyrazine]
100 to 500	c1ccc(CN2C[C@@H]3NCc4c(-c5ccccc5)nnn4[C@@H]3C2)cc1 (racemic) [Example 3, (rac) (5a,8a-cis)-7-benzyl-3-phenyl-5,5a,6,7,8,8a-hexahydro-4H-pyrrolo[3,4-e][1,2,3]triazolo[1,5-a]pyrazine]
> 500	CC(C)(C)OC(=O)N1Cc2c(-c3ccccc3)nnn2[C@@H]2CNC[C@H]21 (racemic) [Example 6, (rac)-(5a,8a-trans)-tert-butyl-3-phenyl-6,7,8,8a-tetrahydro-4H-pyrrolo[3,4-e][1,2,3]triazolo[1,5-a]pyrazine-5(5aH)-carboxylate]
< 100	c1ccc(CN2C[C@@H]3NCCc4c(-c5ccccc5)nnn4[C@@H]3C2)cc1 (racemic) [Example 30, (rac) (6a,9a-cis)-8-benzyl-3-phenyl-4,5,6,6a,7,8,9,9a-octahydropyrrolo[3,4-b][1,2,3]triazolo[1,5-d][1,4]diazepine hydrochloride]
< 100	CN1Cc2c(-c3ccccc3)nnn2[C@@H]2CN(Cc3ccccc3)C[C@H]21 (racemic) [Example 16, (rac) (5a,8a-trans)-7-benzyl-5-methyl-3-phenyl-5,5a,6,7,8,8a-hexahydro-4H-pyrrolo[3,4-e][1,2,3]triazolo[1,5-a]pyrazine hydrochloride]
100 to 500	c1ccc(CN2C[C@H]3NCCc4c(-c5ccccc5)nnn4[C@H]3C2)cc1 [Example 34, (6aR,9aS)-8-benzyl-3-phenyl-4,5,6,6a,7,8,9,9a-octahydropyrrolo[3,4-b][1,2,3]triazolo[1,5-d][1,4]diazepine hydrochloride]
100 to 500	CS(=O)(=O)N1Cc2c(-c3ccccc3)nnn2[C@@H]2CN(Cc3ccccc3)C[C@H]21 (racemic) [Example 20, (rac) (5a,8a-trans)-7-benzyl-5-(methylsulfonyl)-3-phenyl-5,5a,6,7,8,8a-hexahydro-4H-pyrrolo[3,4-e][1,2,3]triazolo[1,5-a]pyrazine hydrochloride]
100 to 500	CC(=O)N1Cc2c(-c3ccccc3)nnn2[C@@H]2CN(Cc3ccccc3)C[C@H]21 (racemic) [Example 4, (rac) 1-((5a,8a-trans)-7-benzyl-3-phenyl-6,7,8,8a-tetrahydro-4H-pyrrolo[3,4-e][1,2,3]triazolo[1,5-a]pyrazin-5(5aH)-yl)ethanone hydrochloride]
< 100	c1ccc(CN2C[C@@H]3[C@@H](C2)NCc2c(-c4ccccc4)nnn23)cc1 (racemic) [Example 1, (rac) (5a,8a-trans)-7-benzyl-3-phenyl-5,5a,6,7,8,8a-hexahydro-4H-pyrrolo[3,4-e][1,2,3]triazolo[1,5-a]pyrazine, hydrochloride]
100 to 500	c1ccc(-c2nnn3c2CN[C@@H]2CN(CC4CC4)C[C@H]23)cc1 (racemic) [Example 18, (rac) (5a,8a-trans)-7-(cyclopropyl-methyl)-3-phenyl-5,5a,6,7,8,8a-hexahydro-4H-pyrrolo[3,4-e][1,2,3]triazolo[1,5-a]pyrazine hydrochloride]
< 100	Fc1ccc(CN2C[C@@H]3[C@@H](C2)NCc2c(-c4ccccc4)nnn23)cc1 (racemic) [Example 8, (rac) (5a,8a-trans)-7-(4-fluorobenzyl)-3-phenyl-5,5a,6,7,8,8a-hexahydro-4H-pyrrolo[3,4-e][1,2,3]triazolo[1,5-a]pyrazine hydrochloride]
< 100	CCCN1Cc2c(-c3ccccc3)nnn2[C@@H]2CN(Cc3ccccc3)C[C@H]21 (racemic) [Example 9, (rac) (5a,8a-trans)-7-benzyl-3-phenyl-5-propyl-5,5a,6,7,8,8a-hexahydro-4H-pyrrolo[3,4-e][1,2,3]triazolo[1,5-a]pyrazine hydrochloride]
